Experimental data taken from patent publication US20230295157A1, “3-(1H-IMIDAZOL-2-YL)-2,3,8,8A-TETRAHYDROINDOLIZIN-5(1H)-ONE DERIVATIVES USEFUL AS FACTOR XIA INHIBITORS” (JANSSEN PHARMACEUTICA NV, priority 2020, published 2023).
Like-named read-outs stand apart in the source and are kept apart here.

Key:
Factor XIa = Factor XIa (Homo sapiens (Human), UniProt P03951); test: Factor XIa inhibition assay (FLINT) utilizing a fluorophore-quencher pair peptide substrate; type: biochemical; conditions: 30 min preincubation, kinetic reads over 30 min, read-out: FXIa Kin Inh IC50
Chain of Factor XIa (P03951 388-625): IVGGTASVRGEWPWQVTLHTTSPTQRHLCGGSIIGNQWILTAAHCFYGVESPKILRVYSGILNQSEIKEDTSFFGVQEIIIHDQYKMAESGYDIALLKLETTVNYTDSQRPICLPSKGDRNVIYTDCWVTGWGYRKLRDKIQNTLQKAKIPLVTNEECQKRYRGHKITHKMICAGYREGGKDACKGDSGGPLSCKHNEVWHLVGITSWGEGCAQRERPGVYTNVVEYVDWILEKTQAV
Chain of Factor XIa (P03951 19-387 partner): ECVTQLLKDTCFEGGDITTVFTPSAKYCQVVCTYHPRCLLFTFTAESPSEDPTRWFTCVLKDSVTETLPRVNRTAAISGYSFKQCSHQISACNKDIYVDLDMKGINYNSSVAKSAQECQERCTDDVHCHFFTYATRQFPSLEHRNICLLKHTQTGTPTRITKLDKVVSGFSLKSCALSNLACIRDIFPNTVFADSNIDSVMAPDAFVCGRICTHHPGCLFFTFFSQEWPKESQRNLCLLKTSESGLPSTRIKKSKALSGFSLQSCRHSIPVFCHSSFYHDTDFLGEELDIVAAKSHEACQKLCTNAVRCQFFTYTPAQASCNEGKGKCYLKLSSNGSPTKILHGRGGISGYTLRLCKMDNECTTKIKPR
Summary of the method: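 FXIa ([…]) preincubated 30 min with compound (11-point 3-fold dilution, top 100 nM, 2% DMSO), then 15 μM quenched FXI Arg146-based peptide added; Tris pH 7.5, CaCl2, BSA, CHAPS. Fluorescence 485/520 nm read kinetically every 5 min over 30 min at RT; IC50 by 4-parameter fit.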

human plasma kallikrein = human plasma kallikrein (Homo sapiens (Human), UniProt P03952); test: Kallikrein inhibition assay (FLINT) utilizing a quenched AMC peptide substrate; type: biochemical; conditions: 30 min preincubation, kinetic reads over 30 min, Z-Gly-Pro-Arg-AMC substrate 50 μM; read-out: Kallikrein Kin Inh IC50
Chain of human plasma kallikrein (P03952 391-638): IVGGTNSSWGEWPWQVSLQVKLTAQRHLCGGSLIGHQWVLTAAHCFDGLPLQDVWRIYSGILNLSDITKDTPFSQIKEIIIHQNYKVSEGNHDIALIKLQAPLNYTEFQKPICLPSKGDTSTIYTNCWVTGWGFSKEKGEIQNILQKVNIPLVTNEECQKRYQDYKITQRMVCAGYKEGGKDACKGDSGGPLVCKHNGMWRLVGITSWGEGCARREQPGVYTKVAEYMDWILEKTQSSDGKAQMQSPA
Chain of human plasma kallikrein (P03952 20-390 partner): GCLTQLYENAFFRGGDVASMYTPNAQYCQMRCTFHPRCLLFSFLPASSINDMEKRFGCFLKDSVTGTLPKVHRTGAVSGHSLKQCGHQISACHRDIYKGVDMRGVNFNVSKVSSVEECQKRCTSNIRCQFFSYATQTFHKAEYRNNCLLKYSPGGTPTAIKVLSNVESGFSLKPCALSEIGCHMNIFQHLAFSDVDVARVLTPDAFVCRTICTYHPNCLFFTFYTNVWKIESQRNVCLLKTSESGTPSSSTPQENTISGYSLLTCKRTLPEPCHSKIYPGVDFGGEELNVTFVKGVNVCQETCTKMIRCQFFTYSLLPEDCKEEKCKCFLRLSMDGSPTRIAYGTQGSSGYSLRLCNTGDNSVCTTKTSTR
Summary of the method: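 Fluorogenic Z-Gly-Pro-Arg-AMC cleavage (50 μM substrate, 2 nM kallikrein, Tris pH 7.5, CaCl2, BSA, CHAPS, 2% DMSO) read kinetically at 340/440 nm for 30 min after 30-min compound pre-incubation. Compounds in 11-point 3-fold series from 1 μM; percent inhibition fitted to four-parameter equation for IC50.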

[1] = 5Fam-KLTRAETV-K5Tamra substrate 15 μM

Structure (SMILES) | IC50 (Factor XIa; [1]) [nM] | IC50 (human plasma kallikrein) [nM] | IC50 (Factor XIa; 5Fam-[…]-K5Tamra substrate 15 μM) [nM]
CC1(C)C[C@@H](c2ncc(-c3ccc(N)nc3F)[nH]2)N2C(=O)C=C(c3c(-n4cnnn4)ccc(Cl)c3F)CC21 (stereo partly drawn) [Example 350, (3S)-3-(5-(6-Amino-2-fluoropyridin-3-yl)-1H-imidazol-2-yl)-7-(3-chloro-2-fluoro-6-(1H-tetrazol-1-yl)phenyl)-1,1-dimethyl-2,3,8,8a-tetrahydroindolizin-5(1H)-one] | 1.3 | 18.5 | 
Nc1ccc(-c2cnc([C@@H]3CC[C@@H]4CC(c5c(-n6cnnn6)ccc(Cl)c5F)=CC(=O)N43)[nH]2)c(Cl)n1 [Example 354, (3S,8aR)-3-[5-(6-amino-2-chloro-3-pyridyl)-1H-imidazol-2-yl]-7-[3-chloro-2-fluoro-6-(tetrazol-1-yl)phenyl]-2,3,8,8a-tetrahydro-1H-indolizin-5-one] | 0.2 | 2.6 | 
[2H]c1nc([C@@H]2CC[C@@H]3CC(c4c(-n5cnnn5)ccc(Cl)c4F)=CC(=O)N32)[nH]c1-c1ccnc(C([2H])([2H])O)c1F [Example 113, (3S,8aR)-7-[3-Chloro-2-fluoro-6-(tetrazol-1-yl)phenyl]-3-[4-deuterio-5-[2-[dideuterio(hydroxy)methyl]-3-fluoro-4-pyridyl]-1H-imidazol-2-yl]-2,3,8,8a-tetrahydro-1H-indolizin-5-one] | 3.2 | 27.3 | 
O=C1C=C(c2c(-n3cc(C(F)(F)F)nn3)ccc(Cl)c2F)C[C@H]2CC[C@@H](c3ncc(-c4c[nH]c5ccncc45)[nH]3)N12 [Example 385, (3S,8aR)-3-(5-(1H-pyrrolo[3,2-c]pyridin-3-yl)-1H-imidazol-2-yl)-7-(3-chloro-2-fluoro-6-(4-(trifluoromethyl)-1H-1,2,3-triazol-1-yl)phenyl)-2,3,8,8a-tetrahydroindolizin-5(1H)-one] | 3.6 | 26.8 | 
O=C1C=C(c2c(-n3cnnn3)ccc(Cl)c2F)C[C@H]2CC[C@@H](c3ncc(-c4ccnc(-n5cccn5)c4)[nH]3)N12 [Example 93, (3S,8aR)-3-(5-(2-(1H-pyrazol-1-yl)pyridin-4-yl)-1H-imidazol-2-yl)-7-(3-chloro-2-fluoro-6-(1H-tetrazol-1-yl)phenyl)-2,3,8,8a-tetrahydroindolizin-5(1H)-one] | 10.3 | 3.1 | 
O=C1C=C(c2c(-n3cnnn3)ccc(Cl)c2F)C[C@H]2CC[C@@H](c3ncc(-c4ccnc(COP(=O)(O)O)c4F)[nH]3)N12 [Example 61, (4-(2-((3S,8aR)-7-(3-chloro-2-fluoro-6-(1H-tetrazol-1-yl)phenyl)-5-oxo-1,2,3,5,8,8a-hexahydroindolizin-3-yl)-1H-imidazol-5-yl)-3-fluoropyridin-2-yl)methyl dihydrogen phosphate] | 0.5 | 44.4 | 
[2H][C@]12CC[C@@H](c3ncc(-c4ccnc(CO)c4F)[nH]3)N1C(=O)C=C(c1c(-n3cnnn3)ccc(Cl)c1F)C2 (relative stereo) [Example 47, (3S,8aR*)-7-(3-Chloro-2-fluoro-6-(1H-tetrazol-1-yl)phenyl)-3-(5-(3-fluoro-2-(hydroxymethyl)pyridin-4-yl)-1H-imidazol-2-yl)-2,3,8,8a-tetrahydroindolizin-5(1H)-one-8a-d] |  | 42.6 | 5.7
O=C1C=C(c2c(-n3cnnn3)ccc(Cl)c2F)C[C@H]2CC[C@@H](c3ncc(-c4ccnc5c4CCO5)[nH]3)N12 [Example 386, (3S,8aR)-7-(3-chloro-2-fluoro-6-(1H-tetrazol-1-yl)phenyl)-3-(5-(2,3-dihydrofuro[2,3-b]pyridin-4-yl)-1H-imidazol-2-yl)-2,3,8,8a-tetrahydroindolizin-5(1H)-one] | 1.3 | 9.5 | 
Cc1ccc(-n2cnnn2)c(C2=CC(=O)N3[C@H](CC[C@H]3c3ncc(-c4ccnc(CO)c4F)[nH]3)C2)c1F [Example 57, (3S,8aR)-3-(5-(3-fluoro-2-(hydroxymethyl)pyridin-4-yl)-1H-imidazol-2-yl)-7-(2-fluoro-3-methyl-6-(1H-tetrazol-1-yl)phenyl)-2,3,8,8a-tetrahydroindolizin-5(1H)-one] | 20.2 | 106 | 
